Results from BindingDB's records for doi:10.1021/jm020211+ (National Institute of Diabetes and Digestive and Kidney …, 2002).

Molecular target: T1, Adenosine receptor A3 (Homo sapiens, UniProt P0DMS8)
T1 sequence (P0DMS8 whole entry): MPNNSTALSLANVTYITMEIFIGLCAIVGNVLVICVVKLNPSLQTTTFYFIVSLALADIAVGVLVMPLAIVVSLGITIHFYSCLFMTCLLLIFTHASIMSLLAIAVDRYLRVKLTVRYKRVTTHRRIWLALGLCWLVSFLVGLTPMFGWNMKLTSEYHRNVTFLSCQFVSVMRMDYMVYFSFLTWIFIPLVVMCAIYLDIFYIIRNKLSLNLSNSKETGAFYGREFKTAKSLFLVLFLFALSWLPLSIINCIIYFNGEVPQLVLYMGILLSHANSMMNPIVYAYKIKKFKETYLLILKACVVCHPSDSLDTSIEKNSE
Experiment: Effect on forskolin-stimulated cyclic AMP production in intact chinese hamster ovary (CHO) cell expressing the human Adenosine A3 receptor

Nc1nc(Cl)nc2c1ncn2C1C(O)C(O)C2(CO)CC12 (stereo unspecified) [4-(6-Amino-2-chloro-purin-9-yl)-1-hydroxymethyl-bicyclo[3.1.0]hexane-2,3-diol]
EC50: 803 nM
